Tested on: tigecycline resistant Salmonella, E. coli, Acinetobacter and Proteus isolates containing tet(X) genes
Test: Checkerboard assays across the panel of isolates
Type: cell-based
Conditions: against all of the strains tested
Procedure: MIC tests and checkerboard assays were performed in U-bottom, 96-well microtiter plates using a modified broth microdilution protocol following CLSI guidelines. Cation-adjusted Mueller-Hinton Broth (CAMHB) was prepared fresh on the day of testing.[74] In brief, assays were set up in a total volume of 100 μL per well and titrations comprised seven 2-fold dilutions of inhibitors and ten 2-fold dilutions of tigecycline in CAMHB. Bacterial colonies were selected from an overnight culture on MHA plates (supplemented with 0.2%w/vL-arabinose for E. coli TOP10 containing pBAD-TOPO-Tet(X4)) and were suspended in 0.9% saline solution to achieve a 0.5 McFarland standard. A 100 μL aliquot of this suspension was then diluted into 9.9 mL of CAMHB to yield approximately 1.5 × 10^6 cfu mL^−1. 50 μL of the suspension was then added to each well of a microtiter plates. Plates were incubated at 37 °C for 18 h. At least 2 replicates were conducted for each combination. E. coli TOP10 + pBAD-TOPO-Tet(X4) cells were grown in the absence and presence of 0.2%w/vL-arabinose. […] As a measure of synergy, fractional inhibitory concentration index (FICI) was calculated as FICA + FICB, where FICA and FICB are the MICcombination/MICalone for each agent, respectively.[76] […] In cases where the MIC exceeded or was below the measured range, the borderline value was taken to calculate the FIC index.

Compound: [H]/N=C(/NCCCCC)N/N=C/c1c[nH]c2ccc(OC)cc12 [Tegaserod]
- reduction of the tigecycline MIC in combination: 2–8 fold

Reference: paper PMC12056667 (Chemical Science, 2025)
